# Experimental data published in patent US20070128217A1 (priority 2003, published 2007).
# Assays:
# [1] = tested on: rabbit serum obtained by immunizing a rabbit with the SARS-CoV strain Frankfurt 1; assay type: binding; design: Binding of a rabbit serum to linear peptides / Binding of a rabbit serum to looped peptides / Rabbit serum linear peptides / Rabbit serum looped peptides / Binding of a rabbit serum to linear peptides of protein N of SARS-CoV Urbani (Rabbit serum linear peptides) / Binding of a rabbit serum to looped/cyclic peptides of protein N of SARS-CoV Urbani (Rabbit serum looped peptides): unit not given here
# [2] = tested on: recombinant human anti-SARS-CoV antibody 03-018; assay type: binding; design: Binding of antibody 03-018 to linear peptides of the N protein of SARS-CoV Urbani / Binding of antibody 03-018 to looped/cyclic peptides of the N protein of SARS-CoV Urbani: unit not given here
# [3] = tested on: control sera (pooled serum of ten healthy LUMC hospital workers; commercial negative donor pooled serum from the Dutch bloodbank); assay type: binding, human; design: Binding of Control serum LUMC to linear peptides / Binding of Control serum Blood-bank to linear peptides / Binding of Control serum LUMC to looped peptides / Binding of Control Serum Blood-Bank to Looped peptides / Binding of Control serum LUMC to linear peptides of the protein M of SARS-CoV Urbani / Binding of Control serum Blood-bank to linear peptides of the protein M of SARS-CoV Urbani / Binding of Control serum LUMC to looped peptides of the protein M of SARS-CoV Urbani / Binding of Control Serum Blood-Bank to Looped peptides of the protein M of SARS-CoV Urbani: unit not given here
# [4] = tested on: antibodies in sera from SARS patients (sera 1a, 1b, 2, 6, 37, 62, London, SARS-yellow, SARS-green); assay type: binding, human; design: Binding of serum 6 to linear peptides of protein X1 of SARS-CoV Urbani / Binding of serum 37 to linear peptides of protein X1 of SARS-CoV Urbani / Binding of serum 6 to looped/cyclic peptide (PEPSCAN-ELISA) / Binding of serum 37 to looped/cyclic peptide (PEPSCAN-ELISA) / Binding of serum 37 to looped/cyclic peptides of protein X1 of SARS-CoV Urbani / Binding of serum 6 to linear peptides of protein X2 / Binding of serum 37 to linear peptides of protein X2 / Binding of serum 37 to looped/cyclic peptides of protein X2 of SARS-CoV Urbani / Binding of serum 6 to linear peptides of protein M of SARS-CoV Urbani / Binding of serum 37 to linear peptides of protein M of SARS-CoV Urbani / Binding of serum 6 to looped/cyclic peptides of protein M of SARS-CoV Urbani / Binding of serum 37 to looped/cyclic peptides of protein M of SARS-CoV Urbani / Binding of serum 6 to linear peptides of protein X3 of SARS-CoV Urbani / Binding of serum 37 to linear peptides of protein X3 of SARS-CoV Urbani / Binding of serum 37 to looped/cyclic peptides of protein X3 of SARS-CoV Urbani / Binding of serum 6 to linear peptides of protein X4 of SARS-CoV Urbani / Binding of serum 37 to linear peptides of protein X4 of SARS-CoV Urbani / Binding of serum 37 to looped/cyclic peptides of protein X4 of SARS-CoV Urbani / Binding of serum 6 to linear peptides of protein X5 of SARS-CoV Urbani / Binding of serum 37 to linear peptides of protein X5 of SARS-CoV Urbani / Binding of serum 37 to looped/cyclic peptides of protein X5 of SARS-CoV Urbani / Binding of serum 6 to linear peptides of protein N of SARS-CoV Urbani / Binding of serum 37 to linear peptides of protein N of SARS-CoV Urbani / Binding of serum 6 to linear peptide (PEPSCAN-ELISA) / Binding of serum 1a to looped/cyclic peptides of protein N of SARS-CoV Urbani / Binding of serum 1b to looped/cyclic peptides of protein N of SARS-CoV Urbani / Binding of serum 2 to looped/cyclic peptides of protein N of SARS-CoV Urbani / Binding of serum 6 to looped/cyclic peptides of protein N of SARS-CoV Urbani / Binding of serum 37 to looped/cyclic peptides of protein N of SARS-CoV Urbani / Binding of serum 62 to looped/cyclic peptides of protein N of SARS-CoV Urbani / Binding of serum London to looped/cyclic peptides of protein N of SARS-CoV Urbani / Binding of serum SARS-green to looped/cyclic peptides of protein N of SARS-CoV Urbani: unit not given here
Sequence,Binding of a rabbit serum to linear peptides of protein N of SARS-CoV Urbani (Rabbit serum linear peptides) [1],Binding of a rabbit serum to looped/cyclic peptides of protein N of SARS-CoV Urbani (Rabbit serum looped peptides) [1],Binding of antibody 03-018 to linear peptides of the N protein of SARS-CoV Urbani [2],Binding of antibody 03-018 to looped/cyclic peptides of the N protein of SARS-CoV Urbani [2],Binding of Control Serum Blood-Bank to Looped peptides [3],Binding of Control serum Blood-bank to linear peptides [3],Binding of Control serum LUMC to linear peptides [3],Binding of Control serum LUMC to looped peptides [3],Binding of serum 1a to linear peptides of protein N of SARS-CoV Urbani [4],Binding of serum 1a to looped/cyclic peptides of protein N of SARS-CoV Urbani [4],Binding of serum 1b to linear peptides of protein N of SARS-CoV Urbani [4],Binding of serum 1b to looped/cyclic peptides of protein N of SARS-CoV Urbani [4],Binding of serum 2 to linear peptides of protein N of SARS-CoV Urbani [4],Binding of serum 2 to looped/cyclic peptides of protein N of SARS-CoV Urbani [4],Binding of serum 6 to looped/cyclic peptides of protein N of SARS-CoV Urbani [4],Binding of serum 37 to looped/cyclic peptides of protein N of SARS-CoV Urbani [4],Binding of serum 62 to looped/cyclic peptides of protein N of SARS-CoV Urbani [4],Binding of serum London to looped/cyclic peptides of protein N of SARS-CoV Urbani [4],Binding of serum SARS-green to looped/cyclic peptides of protein N of SARS-CoV Urbani [4],Binding of serum SARS-yellow to looped/cyclic peptides of protein N of SARS-CoV Urbani [4],further results
LIRQGTDYKHWPQIA,0.2,0.0,0.1,0.1,0.6,0.7,0.7,0.5,0.3,0.4,0.2,0.5,0.4,0.5,0.3,0.6,0.5,0.3,1.0,1.1,Binding of serum 6 to linear peptides of protein N of SARS-CoV Urbani [4]: 0.2; Binding of serum 37 to linear peptides of protein N of SARS-CoV Urbani [4]: 0.8; Binding of serum 62 to linear peptides of protein N of SARS-CoV Urbani [4]: 0.9; Binding of serum London to linear peptides of protein N of SARS-CoV Urbani [4]: 0.9; Binding of serum SARS-green to linear peptides of protein N of SARS-CoV Urbani [4]: 0.4; Binding of serum SARS-yellow to linear peptides of protein N of SARS-CoV Urbani [4]: 0.6
KTFPPTEPKKDKKKK,0.1,0.1,0.1,0.2,–,–,–,–,0.2,0.2,0.1,0.1,0.4,0.2,0.0,0.4,0.2,0.2,0.0,0.2,Control Serum Blood-Bank Looped peptides [3]: 0.3; Control serum Blood-bank linear peptides [3]: 0.6; Control serum LUMC linear peptides [3]: 0.7; Control serum LUMC looped peptides [3]: 0.3; Binding of serum 6 to linear peptides of protein N of SARS-CoV Urbani [4]: 0.2; Binding of serum 37 to linear peptides of protein N of SARS-CoV Urbani [4]: 0.8; Binding of serum 62 to linear peptides of protein N of SARS-CoV Urbani [4]: 0.6; Binding of serum London to linear peptides of protein N of SARS-CoV Urbani [4]: 0.4; Binding of serum SARS-green to linear peptides of protein N of SARS-CoV Urbani [4]: 0.1; Binding of serum SARS-yellow to linear peptides of protein N of SARS-CoV Urbani [4]: 0.8
YKTFPPTEPKKDKKK,0.2,0.2,0.1,0.2,–,–,–,–,0.2,0.2,0.1,0.1,0.5,0.1,0.0,0.4,0.2,0.3,0.0,0.2,Control Serum Blood-Bank Looped peptides [3]: 0.3; Control serum Blood-bank linear peptides [3]: 0.7; Control serum LUMC linear peptides [3]: 0.6; Control serum LUMC looped peptides [3]: 0.3; Binding of serum 6 to linear peptides of protein N of SARS-CoV Urbani [4]: 0.2; Binding of serum 37 to linear peptides of protein N of SARS-CoV Urbani [4]: 0.7; Binding of serum 62 to linear peptides of protein N of SARS-CoV Urbani [4]: 0.7; Binding of serum London to linear peptides of protein N of SARS-CoV Urbani [4]: 0.5; Binding of serum SARS-green to linear peptides of protein N of SARS-CoV Urbani [4]: 0.2; Binding of serum SARS-yellow to linear peptides of protein N of SARS-CoV Urbani [4]: 0.8
GQTVTKKSAAEASKK,0.2,0.2,0.1,0.2,0.4,0.7,0.7,0.3,–,0.2,–,0.1,–,0.2,0.1,0.4,0.2,0.3,0.0,0.2,"Recognition of the peptide by sera of SARS-CoV infected individuals, and form (linear, looped/cyclic) in which it is recognized [4]: recognized in linear form"
DRLNQLESKVSGKGQ,0.3,0.4,0.1,0.3,0.6,0.9,0.7,0.6,–,0.4,–,0.3,–,0.6,0.4,0.6,0.4,0.4,0.4,0.8,Binding of serum 1a to linear peptide (PEPSCAN-ELISA) [4]: 0.3; Binding of serum 1b to linear peptide (PEPSCAN-ELISA) [4]: 0.1; Binding of serum 2 to linear peptide (PEPSCAN-ELISA) [4]: 0.3; Binding of serum 6 to linear peptide (PEPSCAN-ELISA) [4]: 0.2; Binding of serum 37 to linear peptide (PEPSCAN-ELISA) [4]: 0.8; Binding of serum 62 to linear peptide (PEPSCAN-ELISA) [4]: 0.7; Binding of serum London to linear peptide (PEPSCAN-ELISA) [4]: 0.5; Binding of serum SARS-green to linear peptide (PEPSCAN-ELISA) [4]: 0.5; Binding of serum SARS-yellow to linear peptide (PEPSCAN-ELISA) [4]: 0.7
